Measurements as given in patent US6686478B2, “Thienylsulphonylamino(thio)carbonyl compounds” (Bayer Aktiengesellschaft, priority 1996, dated 2004).

Assays:
[1] = tested on: Sinapis; assay: Post-emergence test/greenhouse; type: in vivo; details: greenhouse, 250 g of ai/ha, after three weeks, 0%=no effect, 100%=total destruction
Experimental: (§1) Solvent: 5 parts by weight of acetone
(§2) Emulsifier: 1 part by weight of alkylaryl polyglycol ether
(§3) To produce a suitable preparation of active compound, 1 part by weight of active compound is mixed with the stated amount of solvent, the stated amount of emulsifier is added and the concentrate is diluted with water to the desired concentration.
(§4) Test plants which have a height of 5-15 cm are sprayed with the preparation of the active compound in such a way as to apply the particular amounts of active compound desired per unit area. The concentration of the spray liquor is chosen so that the amounts of active compound desired in each case are applied in 1000 l of water/ha.
(§5) After three weeks, the degree of damage to the plants is rated in % damage in comparison with the development of the untreated control.
(§6) 0%=no effect (like untreated control)

[2] = tested on: Amaranthus; assay: Post-emergence test/greenhouse; type: in vivo; details: greenhouse, 250 g of ai/ha, after three weeks, 0%=no effect, 100%=total destruction
Experimental: as §1, §2, §3, §4, §5, §6

[3] = tested on: Setaria; assay: Post-emergence test/greenhouse; type: in vivo; details: greenhouse, 250 g of ai/ha, after three weeks, 0%=no effect, 100%=total destruction
Experimental: as §1, §2, §3, §4, §5, §6

[4] = tested on: Maize; assay: Post-emergence test/greenhouse; type: in vivo; details: greenhouse, 250 g of ai/ha, after three weeks, 0%=no effect, 100%=total destruction
Experimental: as §1, §2, §3, §4, §5, §6

[5] = tested on: weeds; assay: Post-emergence test, summary for weeds; type: in vivo; details: result in words
Experimental: as §1, §2, §3, §4, §5, §6

[6] = tested on: Matricaria; assay: Pre-emergence test/greenhouse; type: in vivo; details: greenhouse, 125 g of ai./ha, after three weeks, 0%=no effect, 100%=total destruction
Experimental: as §1, §2, §3
(§7) Seeds of the test plants are sown in normal soil. After about 24 hours, the soil is watered with the preparation of the active compound. Advantageously, the amount of water per unit area is kept constant. The active compound concentration in the preparation is not important, only the active compound application rate per unit area is critical.
(§8) After three weeks, the degree of damage to the plants is rated in % damage in comparison with the development of the untreated control. The figures denote:
as §6

[7] = tested on: Cyperus; assay: Pre-emergence test/greenhouse; type: in vivo; details: greenhouse, 125 g of ai./ha, after three weeks, 0%=no effect, 100%=total destruction
Experimental: as §1, §2, §3, §7, §8, §6

[8] = tested on: Lolium; assay: Pre-emergence test/greenhouse; type: in vivo; details: greenhouse, 125 g of ai./ha, after three weeks, 0%=no effect, 100%=total destruction
Experimental: as §1, §2, §3, §7, §8, §6

[9] = tested on: Chenopodium; assay: Pre-emergence test/greenhouse; type: in vivo; details: greenhouse, 125 g of ai./ha, after three weeks, 0%=no effect, 100%=total destruction
Experimental: as §1, §2, §3, §7, §8, §6

[10] = tested on: Solanum; assay: Pre-emergence test/greenhouse; type: in vivo; details: greenhouse, 125 g of ai./ha, after three weeks, 0%=no effect, 100%=total destruction
Experimental: as §1, §2, §3, §7, §8, §6

[11] = tested on: Bromus; assay: Pre-emergence test/greenhouse; type: in vivo; details: greenhouse, 125 g of ai./ha, after three weeks, 0%=no effect, 100%=total destruction
Experimental: as §1, §2, §3, §7, §8, §6

[12] = tested on: Setaria; assay: Pre-emergence test/greenhouse; type: in vivo; details: greenhouse, 125 g of ai./ha, after three weeks, 0%=no effect, 100%=total destruction
Experimental: as §1, §2, §3, §7, §8, §6

[13] = tested on: weeds; assay: Pre-emergence test, summary for weeds; type: in vivo; details: result in words
Experimental: as §1, §2, §3, §7, §8, §6

[14] = tested on: Maize; assay: Pre-emergence test/greenhouse; type: in vivo; details: greenhouse, 125 g of ai./ha, after three weeks, 0%=no effect, 100%=total destruction
Experimental: as §1, §2, §3, §7, §8, §6

[15] = tested on: Sinapis; assay: Pre-emergence test/greenhouse; type: in vivo; details: greenhouse, 250 g of ai./ha, after three weeks, 0%=no effect, 100%=total destruction
Experimental: as §1, §2, §3, §7, §8, §6

[16] = tested on: Alopecurus; assay: Pre-emergence test/greenhouse; type: in vivo; details: greenhouse, 250 g of ai./ha, after three weeks, 0%=no effect, 100%=total destruction
Experimental: as §1, §2, §3, §7, §8, §6

[17] = tested on: Amaranthus; assay: Pre-emergence test/greenhouse; type: in vivo; details: greenhouse, 250 g of ai./ha, after three weeks, 0%=no effect, 100%=total destruction
Experimental: as §1, §2, §3, §7, §8, §6

[18] = tested on: Abutilon; assay: Pre-emergence test/greenhouse; type: in vivo; details: greenhouse, 250 g of ai./ha, after three weeks, 0%=no effect, 100%=total destruction
Experimental: as §1, §2, §3, §7, §8, §6

[19] = tested on: Xanthium; assay: Pre-emergence test/greenhouse; type: in vivo; details: greenhouse, 250 g of ai./ha, after three weeks, 0%=no effect, 100%=total destruction
Experimental: as §1, §2, §3, §7, §8, §6

[20] = tested on: Abutilon; assay: Post-emergence test/greenhouse; type: in vivo; details: greenhouse, 250 g of ai/ha, after three weeks, 0%=no effect, 100%=total destruction
Experimental: as §1, §2, §3, §4, §5, §6

[21] = tested on: Wheat; assay: Pre-emergence test/greenhouse; type: in vivo; details: greenhouse, 125 g of ai./ha, after three weeks, 0%=no effect, 100%=total destruction
Experimental: as §1, §2, §3, §7, §8, §6

| SMILES | degree of damage to the plants, Sinapis [1] [%] | degree of damage to the plants, Amaranthus [2] [%] | degree of damage to the plants, Setaria [3] [%] | activity against weeds [5] | degree of damage to the plants, Matricaria [6] [%] | degree of damage to the plants, Cyperus [7] [%] | degree of damage to the plants, Lolium [8] [%] | degree of damage to the plants, Chenopodium [9] [%] | degree of damage to the plants, Solanum [10] [%] | degree of damage to the plants, Bromus [11] [%] | degree of damage to the plants, Setaria [12] [%] | activity against weeds [13] | further results |
| --- | --- | --- | --- | --- | --- | --- | --- | --- | --- | --- | --- | --- | --- |
| Cc1nc(C(=O)NS(=O)(=O)c2c(C)csc2C)no1 [Example 2, N-(2,4-dimethyl-thien-3-yl-sulphonyl)-5-methyl-1,2,4-oxadiazol-3-carboxamide] |  |  |  |  |  |  |  |  |  |  |  |  | melting point: 164 °C |
| Cc1csc(C)c1S(=O)(=O)NC(=O)n1nc(OC(C)C)n(C)c1=O [Example 6] | 100 | 90 | 80 | very strong activity |  |  |  |  |  |  |  |  | degree of damage to the plants, Maize [4]: 10% |
| COc1nn(C(=O)NS(=O)(=O)c2c(C)csc2C)c(=O)n1C [Example 11] |  |  |  |  | 100 | 100 | 100 | 95 | 95 | 100 | 100 | very strong activity |  |
| CCc1nn(C(=O)NS(=O)(=O)c2c(C)csc2C)c(=O)n1C [Example 3] |  |  |  |  | 100 | 100 | 100 | 100 | 100 | 100 | 100 | very strong activity | degree of damage to the plants, Maize [14]: 5% |
| CCCOc1nn(C(=O)NS(=O)(=O)c2c(C)csc2C)c(=O)n1C [Example 5] |  |  |  |  |  |  |  |  |  |  |  | very strong activity | degree of damage to the plants, Sinapis [15]: 95%; degree of damage to the plants, Alopecurus [16]: 70%; degree of damage to the plants, Amaranthus [17]: 90%; degree of damage to the plants, Abutilon [18]: 90%; degree of damage to the plants, Xanthium [19]: 90% |
| CCOc1nn(C(=O)NS(=O)(=O)c2c(C)csc2C)c(=O)n1CC [Example 13] | 100 | 100 | 80 | very strong activity |  |  |  |  |  |  |  |  | degree of damage to the plants, Abutilon [20]: 80% |
| C#CCSc1nn(C(=O)NS(=O)(=O)c2c(C)csc2C)c(=O)n1C [Example 14] | 95 | 95 | 90 | very strong activity |  |  |  |  |  |  |  |  | degree of damage to the plants, Maize [4]: 10% |
| CCOc1nn(C(=O)NS(=O)(=O)c2c(C)csc2C)c(=O)n1C1CC1 [Example 12] |  |  |  |  |  |  |  |  |  |  |  | very strong activity | degree of damage to the plants, Sinapis [15]: 95%; degree of damage to the plants, Alopecurus [16]: 70%; degree of damage to the plants, Amaranthus [17]: 90%; degree of damage to the plants, Abutilon [18]: 90% |
| CSc1nn(C(=O)NS(=O)(=O)c2c(C)csc2C)c(=O)n1C [Example 4] |  |  |  |  | 90 | 95 | 100 | 90 | 80 | 95 | 100 | very strong activity | degree of damage to the plants, Wheat [21]: 0%; degree of damage to the plants, Maize [14]: 0% |
| CCOc1nn(C(=O)NS(=O)(=O)c2c(C)csc2C)c(=O)n1C [Example 1, 5-ethoxy-4-methyl-2-(2,4-dimethyl-thien-3-yl-sulphonylaminocarbonyl)-2,4-dihydro-3H-1,2,4-triazol-3-one] |  |  |  |  | 100 | 95 | 100 | 100 | 100 | 100 | 100 | very strong activity | degree of damage to the plants, Wheat [21]: 0%; melting point: 158 °C |
